Laboratory results as given in patent US6579556B2, “Ambient stable beverage” (Lipton, division of Conopco, Inc., priority 2000, dated 2003).
Values after ≈ are worked out from the molar mass of the structure shown. Where two headings read alike, the source gives them in different places.

System: yeast Saccharomyces cerevisiae X2180-1B
Test: Fungicidal activity / MIC at 50° C. versus 30° C., yeast survival in YEPD broth pH 3.4
Format: cell-based
Details: for Importance: rating as pasteurisation adjunct
Procedure: In the table the minimum inhibitory concentration (MIC) is given for each compound as well as the molecular weight (M.W.), the logPoct and a rating of its importance. […] The logPoct, that is the logarithm of the partition coefficient of the relevant compound in octanol and thus a measure of its […], was determined using […]™ software from the CHEMOFFICE ULRA ENHANCED 2000™ software package (version 5.5) that is commercially available from CambridgeSoft.
(§1) YEPD contained glucose, 20 g/l, peptone 20 g/l and yeast extract 10 g/l. Rows of 30 ml tubes containing 10 ml YEPD, pH 3.4, were equilibrated at the required temperature for 7 minutes in a water bath, before inoculation with 10^4 cells/ml of the yeast Saccharomyces cerevisiae X2180-1B. Tubes were held at temperature for 10 minutes before being cooled rapidly in cold water for 5 minutes. Tubes were then incubated for 48 hours at 25° C. to allow surviving yeasts to grow out, and form discrete colonies.
as §1, §1, §1

[1] = Saccharomyces cerevisiae, minimum inhibitory concentration, 50° C., read-out: MIC50
[2] = Saccharomyces cerevisiae, minimum inhibitory concentration, 50° C., given as ppm, read-out: MIC50
[3] = minimum inhibitory concentration, 50° C.
[4] = Saccharomyces cerevisiae, read-out: MIC50

Molecule | MIC [1] | Importance | further results
CCCCCCCCCCOC(=O)CCC [Decyl butyrate] | 70 mM (≈ 16000 µg/mL) | Low | –
CC(C)CCOC(=O)c1ccccc1O [Isoamyl salicylate] | 15 mM (≈ 3120 µg/mL) | Mod | –
CCCCCCCOC(=O)CCC [Heptyl butyrate] | 2 mM (≈ 373 µg/mL) | High (High effects compounds, most preferred, generally showed at least a 5 fold decrease in MIC, minimum inhibitory concentration at 50 °C compared with 30° C.) | –
CCCCCCCCCC(=O)OCC [Ethyl decanoate] | 40 mM (≈ 8010 µg/mL) | High (High effects compounds, most preferred, generally showed at least a 5 fold decrease in MIC, minimum inhibitory concentration at 50 °C compared with 30° C.) | –
C=CC(C)(CCC=C(C)C)OC(=O)CC (stereo not shown) [Linalyl propionate] | 20 mM (≈ 4210 µg/mL) | Mod | –
CCCCCCCCCCCCCC(=O)O [Myristic acid] | 50 mM (≈ 11400 µg/mL) | High (High effects compounds, most preferred, generally showed at least a 5 fold decrease in MIC, minimum inhibitory concentration at 50 °C compared with 30° C.) | –
CCCC(=O)OC/C=C(/C)CCC=C(C)C [Neryl butyrate] | 50 mM (≈ 11200 µg/mL) | Mod | –
CCCCCCCCCC=CC=O [2-Dodecenal] | < 0.05 mM | High (High effects compounds, most preferred, generally showed at least a 5 fold decrease in MIC, minimum inhibitory concentration at 50 °C compared with 30° C.) | MIC50 [2]: < 9 µg/mL
CCCCCCCC(=O)OCCCCC [Amyl octanoate] | 60 mM (≈ 12900 µg/mL) | Mod | –
CCCCCCCCCCCCOC(C)=O [Lauryl acetate] | 40 mM | Mod | –
CC(C)=CCC/C(C)=C\COC(=O)C(C)C [Neryl isobutyrate] | 30 mM (≈ 6730 µg/mL) | High (High effects compounds, most preferred, generally showed at least a 5 fold decrease in MIC, minimum inhibitory concentration at 50 °C compared with 30° C.) | –
CCC(=O)OC/C=C(\C)CCC=C(C)C [Geranyl propionate] | 12 mM (≈ 2520 µg/mL) | High (High effects compounds, most preferred, generally showed at least a 5 fold decrease in MIC, minimum inhibitory concentration at 50 °C compared with 30° C.) | –
CCCCCC(=O)OCCC(C)C [Isoamyl hexanoate] | 5 mM (≈ 931 µg/mL) | High (High effects compounds, most preferred, generally showed at least a 5 fold decrease in MIC, minimum inhibitory concentration at 50 °C compared with 30° C.) | –
C=C(C)C1CC=C(C)C(OC(=O)CC)C1 (stereo not shown) [Carvyl propionate] | – | Mod | MIC50 [3]: 5 mM
CCCCCOC(=O)CCCCC [Amyl hexanoate] | 2 mM (≈ 373 µg/mL) | High (High effects compounds, most preferred, generally showed at least a 5 fold decrease in MIC, minimum inhibitory concentration at 50 °C compared with 30° C.) | –
O=C(OCc1ccccc1)c1ccccc1O [Benzyl salicylate] | 50 mM (≈ 11400 µg/mL) | Low | –
CCCCCCOC(=O)CCCCC [Hexyl hexanoate] | 30 mM (≈ 6010 µg/mL) | High (High effects compounds, most preferred, generally showed at least a 5 fold decrease in MIC, minimum inhibitory concentration at 50 °C compared with 30° C.) | –
CCCC(=O)OC/C=C(\C)CCC=C(C)C [Geranyl butyrate] | 40 mM (≈ 8970 µg/mL) | High (High effects compounds, most preferred, generally showed at least a 5 fold decrease in MIC, minimum inhibitory concentration at 50 °C compared with 30° C.) | –
O=C(OCc1ccccc1)c1ccccc1 [Benzyl benzoate] | 20 mM (≈ 4240 µg/mL) | Mod | –
methyl decenoate | – | – | fungicidal activity at 30° C. (30° C.): no fungicidal activity; fungicidal activity when heated to 50° C. (50° C.): significant fungicidal activity
CCCCCCCCCOC(C)=O [Nonyl acetate] | 5 mM | High (High effects compounds, most preferred, generally showed at least a 5 fold decrease in MIC, minimum inhibitory concentration at 50 °C compared with 30° C.) | –
CCCCCCCCCC(=O)OC [Methyl decanoate] | 2 mM (≈ 373 µg/mL) | High (High effects compounds, most preferred, generally showed at least a 5 fold decrease in MIC, minimum inhibitory concentration at 50 °C compared with 30° C.) | –
C=CC(C)(O)CCC=C(C)CCC=C(C)C (stereo not shown) [Nerolidol] | 1.5 mM (≈ 334 µg/mL) | High (High effects compounds, most preferred, generally showed at least a 5 fold decrease in MIC, minimum inhibitory concentration at 50 °C compared with 30° C.) | –
O=C(c1ccccc1)C(O)c1ccccc1 (stereo not shown) [Benzoin] | – | 10 | MIC [4]: 10 mM (≈ 2120 µg/mL)
CCCCCCCCCCC(=O)OCC [Ethyl undecanoate] | 50 mM (≈ 10700 µg/mL) | Mod | –
CCCCCCCCCCC(=O)OC [Methyl undecanoate] | 50 mM (≈ 10000 µg/mL) | High (High effects compounds, most preferred, generally showed at least a 5 fold decrease in MIC, minimum inhibitory concentration at 50 °C compared with 30° C.) | –

Molecule | MIC [1] | Importance | further results
CC(=O)OC1CC2CCC1(C)C2(C)C (stereo not shown) [Bornyl acetate] | 2 mM | Low | –
CCCCCCCCCCCC(=O)OCCCC [Butyl laurate] | 100 mM (≈ 25600 µg/mL) | Low | –
C=CCOC(=O)CCC1CCCCC1 [Allyl cyclohexanepropionate] | 1 mM (≈ 196 µg/mL) | High (High effects compounds, most preferred, generally showed at least a 5 fold decrease in MIC, minimum inhibitory concentration at 50 °C compared with 30° C.) | –
CCCCCCCCCCCCCCC(=O)O [Pantadecanoic acid] | – | Low | MIC50 [3]: 80 mM
w-6-Hexadecalactone | – | Low | MIC50 [3]: 50 mM
CCCCCCCCC(=O)OC [Methyl nonanoate] | 2 mM (≈ 345 µg/mL) | High (High effects compounds, most preferred, generally showed at least a 5 fold decrease in MIC, minimum inhibitory concentration at 50 °C compared with 30° C.) | –
CCCCCCCCCCCC(=O)OC [Methyl laurate] | 40 mM (≈ 8570 µg/mL) | High (High effects compounds, most preferred, generally showed at least a 5 fold decrease in MIC, minimum inhibitory concentration at 50 °C compared with 30° C.) | –
CCCCCCCC(=O)OCCCCCC [Hexyl octanoate] | 10 mM (≈ 2280 µg/mL) | Mod | –
CCCCCCCCCCC=CC=O [2-Tridecenal] | < 0.05 mM | High (High effects compounds, most preferred, generally showed at least a 5 fold decrease in MIC, minimum inhibitory concentration at 50 °C compared with 30° C.) | MIC50 [2]: < 9.8 µg/mL
CCCCCCCCCC(C)=O [2-Undecanone] | – | High (High effects compounds, most preferred, generally showed at least a 5 fold decrease in MIC, minimum inhibitory concentration at 50 °C compared with 30° C.) | MIC [4]: 1 mM (≈ 170 µg/mL)
CCCCCCCCCCCCCC(=O)OC [Methyl myristate] | 60 mM (≈ 14500 µg/mL) | Low | –
C=CCCCCCCCCC(=O)OCC [Ethyl 10-undecenoate] | 50 mM (≈ 10600 µg/mL) | High (High effects compounds, most preferred, generally showed at least a 5 fold decrease in MIC, minimum inhibitory concentration at 50 °C compared with 30° C.) | –
C=CC(C)(CCC=C(C)C)OC(C)=O (stereo not shown) [Linalyl acetate] | – | Mod | MIC [4]: 10 mM
CCCCCCCCCCCCC(=O)O [Tridecanoic acid] | 0.2 mM (≈ 42.9 µg/mL) | High (High effects compounds, most preferred, generally showed at least a 5 fold decrease in MIC, minimum inhibitory concentration at 50 °C compared with 30° C.) | –
C=C1CC/C=C(\C)CC[C@@H]2[C@@H]1CC2(C)C [β-Caryophylene] | – | Low | MIC50 [3]: 70 mM
CC(C)C(=O)OCCOc1ccccc1 [2-Phenoxylethyl isobutyrate] | – | High (High effects compounds, most preferred, generally showed at least a 5 fold decrease in MIC, minimum inhibitory concentration at 50 °C compared with 30° C.) | MIC [4]: 0.1 mM (≈ 20.8 µg/mL)
CCCCCC(=O)OCCc1ccccc1 [Phenethyl hexanoate] | 10 mM (≈ 2200 µg/mL) | High (High effects compounds, most preferred, generally showed at least a 5 fold decrease in MIC, minimum inhibitory concentration at 50 °C compared with 30° C.) | –
O=C1CCCCCCCCCCCCCCO1 [w-Pentadecalactone] | – | Low | MIC50 [3]: 60 mM
CCCCCCCCCCCCCO [Tridecanol] | 0.05 mM (≈ 10 µg/mL) | High (High effects compounds, most preferred, generally showed at least a 5 fold decrease in MIC, minimum inhibitory concentration at 50 °C compared with 30° C.) | –
CCCCCCCC(=O)OCCc1ccccc1 [Phenethyl octanoate] | 40 mM (≈ 9930 µg/mL) | Mod | –
CCCCCCCCCCCCCCO [Tetradecanol] | 50 mM (≈ 10700 µg/mL) | Mod | –
C=CCCCCCCCCC(=O)OCCCC [Butyl 10-undecenoate] | 40 mM (≈ 9620 µg/mL) | Mod | –
CCCCCCCCCCCCCCCCO [Hexadecanol] | 100 mM (≈ 24200 µg/mL) | Low | –
CCCCCCCCCCCCC=O [Tridecanal] | 5 mM (≈ 992 µg/mL) | High (High effects compounds, most preferred, generally showed at least a 5 fold decrease in MIC, minimum inhibitory concentration at 50 °C compared with 30° C.) | –
CC=CCCCCCCCC(=O)OC [Methyl-9-undecenoate] | 40 mM (≈ 7930 µg/mL) | High (High effects compounds, most preferred, generally showed at least a 5 fold decrease in MIC, minimum inhibitory concentration at 50 °C compared with 30° C.) | –
CCCCCCCCCCCC(=O)OCC [Ethyl laurate] | 80 mM (≈ 18300 µg/mL) | Mod | –
